Measurements published in patent US20230050653A1, “ROCK INHIBITOR AND PREPARATION METHOD THEREFOR AND USE THEREOF” (WUHAN LL SCIENCE AND TECHNOLOGY DEVELOPMENT CO., LTD., priority 2019, published 2023).

Experiments:
ROCK1 kinase = biological target: T1, ROCK1 kinase (Homo sapiens, UniProt Q13464); test: In vitro evaluation of ROCK1 kinase selectivity (HTRF KinEASE-STK time-resolved fluorometric assay); format: biochemical
T1 construct: purchased Invitrogen
Procedure: ROCK1 activity was detected using a 96-well (Cisbio) time-resolved fluorometric assay. The assay for ROCK1 was performed in the following assay buffer: 5 mM MgCl2 (Sigma), 1 mM DTT (Sigma) and 1× kinase buffer. The kinase buffer was used for dilution. 7.5 μL of ROCK1 kinase (Invitrogen) was added to a 96-well microplate to reach a final concentration of 0.4 ng/μL, and then 0.25 μL of test compound (DMSO content: 1%) was added. The mixture was incubated at room temperature for 0.5 h. To start the reaction, the kinase buffer was also used to mix ATP (Aladdin) and the substrate STK-substrate 2-biotin. 7.5 μL of the mixed solution was added to the microplate to reach final concentrations of 3.53 μM and 1 μM. The resulting mixture was incubated for 2 h at room temperature. […] was mixed with STK antibody-Cryptate, and then an appropriate volume of the mixture was mixed with an equal volume of streptavidin-XL665. 10 μL of the resulting mixture was added to stop the reaction. After further incubation for about 1 h, the microplate was read on a Molecular Devices SpectraMax i3x multifunctional microplate reader. The kinase buffer, the STK-substrate 2-biotin, the detection buffer, the STK antibody-Cryptate, and the streptavidin-XL665 were all from HTRF KinEASE-STK kit (Cisbio, 1000 tests, 61[…]).

ROCK2 kinase = biological target: T2, ROCK2 kinase (Homo sapiens, UniProt O75116); test: In vitro evaluation of ROCK2 kinase activity (HTRF KinEASE-STK time-resolved fluorometric assay); format: biochemical
T2 construct: purchased Invitrogen PV3759
Procedure: ROCK2 activity screening. ROCK2 activity was detected using a 96-well (Cisbio) time-resolved fluorometric assay. The assay for ROCK2 was performed in the following assay buffer: 5 mM MgCl2 (Sigma), 1 mM DTT (Sigma) and 1× kinase buffer. The kinase buffer was used for dilution. 7.5 μL of ROCK2 kinase (Invitrogen, PV3759) was added to a 96-well microplate to reach a final concentration of 0.4 ng/μL, and then 0.25 μL of test compound (DMSO content: 1% (volume fraction)) was added. The mixture was incubated at room temperature for 0.5 h. To start the reaction, the kinase buffer was used to mix ATP (Aladdin) and the substrate STK-substrate 2-biotin. 7.5 μL of the mixed solution was added to the microplate to reach final concentrations of 6.739 μM and 1 μM. The resulting mixture was incubated for 2 h at room temperature. 5 mL of detection buffer was mixed with STK antibody-Cryptate, and then an appropriate volume of the mixture was mixed with an equal volume of streptavidin-XL665. 10 μL of the resulting mixture was added to the microplate to stop the reaction. After further incubation for about 1 h, the microplate was read on a Molecular Devices SpectraMax i3x multifunctional microplate reader. The kinase buffer, the STK-substrate 2-biotin, the detection buffer, the STK antibody-Cryptate, and the streptavidin-XL665 were all from HTRF KinEASE-STK kit (Cisbio, 1000 tests, 61[…]).

T1 sequence (Q13464 whole entry): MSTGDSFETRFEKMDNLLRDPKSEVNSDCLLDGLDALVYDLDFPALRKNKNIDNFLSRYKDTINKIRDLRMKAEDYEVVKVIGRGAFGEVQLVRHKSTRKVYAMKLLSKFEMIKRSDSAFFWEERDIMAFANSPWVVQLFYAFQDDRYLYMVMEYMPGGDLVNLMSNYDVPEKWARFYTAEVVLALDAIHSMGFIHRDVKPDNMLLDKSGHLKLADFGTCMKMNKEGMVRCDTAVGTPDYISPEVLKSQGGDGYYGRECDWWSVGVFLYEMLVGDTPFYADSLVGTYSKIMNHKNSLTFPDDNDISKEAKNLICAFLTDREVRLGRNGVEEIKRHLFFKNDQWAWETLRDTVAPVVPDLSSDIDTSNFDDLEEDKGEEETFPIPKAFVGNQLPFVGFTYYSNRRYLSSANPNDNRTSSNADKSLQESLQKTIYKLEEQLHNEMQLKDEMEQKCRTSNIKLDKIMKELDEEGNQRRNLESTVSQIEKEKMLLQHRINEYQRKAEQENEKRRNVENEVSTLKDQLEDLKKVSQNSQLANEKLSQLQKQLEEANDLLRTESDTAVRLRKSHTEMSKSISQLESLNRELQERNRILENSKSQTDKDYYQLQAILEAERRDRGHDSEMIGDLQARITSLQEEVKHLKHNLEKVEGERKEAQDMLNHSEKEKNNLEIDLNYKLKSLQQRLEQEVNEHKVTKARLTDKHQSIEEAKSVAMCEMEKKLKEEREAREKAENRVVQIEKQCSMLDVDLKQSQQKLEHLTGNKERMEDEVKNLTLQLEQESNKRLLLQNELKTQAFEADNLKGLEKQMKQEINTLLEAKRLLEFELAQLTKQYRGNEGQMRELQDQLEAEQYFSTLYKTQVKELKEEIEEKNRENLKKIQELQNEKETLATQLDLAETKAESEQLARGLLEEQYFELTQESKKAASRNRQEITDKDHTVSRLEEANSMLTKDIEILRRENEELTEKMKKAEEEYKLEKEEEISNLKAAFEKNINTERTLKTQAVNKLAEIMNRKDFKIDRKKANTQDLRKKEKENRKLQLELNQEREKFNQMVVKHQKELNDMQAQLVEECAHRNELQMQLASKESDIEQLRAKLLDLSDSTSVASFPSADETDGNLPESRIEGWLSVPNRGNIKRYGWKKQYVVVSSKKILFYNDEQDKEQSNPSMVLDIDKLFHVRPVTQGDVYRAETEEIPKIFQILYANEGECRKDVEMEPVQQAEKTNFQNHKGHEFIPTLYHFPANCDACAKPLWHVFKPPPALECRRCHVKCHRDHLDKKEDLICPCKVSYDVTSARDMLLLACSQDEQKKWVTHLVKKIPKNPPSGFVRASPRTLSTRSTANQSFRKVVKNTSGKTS
T2 sequence (O75116 whole entry): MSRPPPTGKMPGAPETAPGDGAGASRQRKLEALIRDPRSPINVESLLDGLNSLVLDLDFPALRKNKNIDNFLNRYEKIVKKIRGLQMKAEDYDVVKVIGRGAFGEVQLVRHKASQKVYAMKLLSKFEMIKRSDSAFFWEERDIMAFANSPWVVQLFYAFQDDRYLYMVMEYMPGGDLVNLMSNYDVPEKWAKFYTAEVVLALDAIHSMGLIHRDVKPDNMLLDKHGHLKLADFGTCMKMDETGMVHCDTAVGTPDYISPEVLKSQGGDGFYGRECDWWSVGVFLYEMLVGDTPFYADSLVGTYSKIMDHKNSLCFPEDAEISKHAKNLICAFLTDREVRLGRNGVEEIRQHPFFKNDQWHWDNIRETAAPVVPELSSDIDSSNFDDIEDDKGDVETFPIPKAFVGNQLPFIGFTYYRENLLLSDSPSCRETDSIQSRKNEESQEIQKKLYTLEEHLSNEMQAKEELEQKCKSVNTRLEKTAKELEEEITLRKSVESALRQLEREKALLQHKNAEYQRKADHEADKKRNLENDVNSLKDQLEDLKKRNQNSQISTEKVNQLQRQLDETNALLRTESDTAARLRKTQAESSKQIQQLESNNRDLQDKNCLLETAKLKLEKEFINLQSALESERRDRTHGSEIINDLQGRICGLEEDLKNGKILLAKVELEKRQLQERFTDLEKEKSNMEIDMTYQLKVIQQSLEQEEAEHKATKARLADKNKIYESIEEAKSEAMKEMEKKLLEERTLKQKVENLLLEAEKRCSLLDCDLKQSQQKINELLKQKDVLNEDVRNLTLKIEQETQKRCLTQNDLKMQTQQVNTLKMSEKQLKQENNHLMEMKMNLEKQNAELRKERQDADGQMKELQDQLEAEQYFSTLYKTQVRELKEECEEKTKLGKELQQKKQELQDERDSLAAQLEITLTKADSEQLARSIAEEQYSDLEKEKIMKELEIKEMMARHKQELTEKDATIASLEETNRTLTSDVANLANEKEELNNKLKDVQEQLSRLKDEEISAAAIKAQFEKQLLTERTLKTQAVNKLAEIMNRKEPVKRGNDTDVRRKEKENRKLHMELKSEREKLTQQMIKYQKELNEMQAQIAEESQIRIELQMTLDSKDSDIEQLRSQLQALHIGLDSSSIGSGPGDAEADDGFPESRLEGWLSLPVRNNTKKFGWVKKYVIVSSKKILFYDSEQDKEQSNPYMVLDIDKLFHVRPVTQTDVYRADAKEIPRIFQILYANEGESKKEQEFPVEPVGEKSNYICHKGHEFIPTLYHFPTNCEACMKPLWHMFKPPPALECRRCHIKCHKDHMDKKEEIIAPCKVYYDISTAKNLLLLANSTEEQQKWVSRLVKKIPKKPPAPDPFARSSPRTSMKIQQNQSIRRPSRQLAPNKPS

| Compound | IC50 (ROCK1 kinase) [µM] | IC50 (ROCK2 kinase) [µM] |
| --- | --- | --- |
| O=C(N[C@H](CN1CC(F)(F)C1)c1cc(F)cc(F)c1)N1CCc2cc(-c3c[nH]nc3F)c(F)cc21 [Compound T340] | 0.05 to 0.5 | ≤ 0.05 |
| COc1cc(F)cc(C(C)NC(=O)N2CCc3cc(-c4cn[nH]c4)c(F)cc32)c1 (centres unmarked) [Compound T341, 6-fluoro-N-(1-(3-fluoro-5-methoxyphenyl)ethyl)-5-(1H-pyrazol-4-yl)indoline-1-carboxamide] | ≤ 0.05 | ≤ 0.05 |
| COc1cc(F)cc(CNC(=O)N2CCc3cc(-c4cn[nH]c4F)ccc32)c1 [Compound T342, 5-(5-fluoro-1H-pyrazol-4-yl)-N-(3-fluoro-5-methoxybenzyl)indoline-1-carboxamide] | ≤ 0.05 | ≤ 0.05 |
| CN1CC(COc2cc(F)cc(C(CO)NC(=O)N3CCc4cc(-c5cn[nH]c5)c(F)cc43)c2)C1 (centres unmarked) [Compound T343, 6-fluoro-N-(1-(3-fluoro-5-((1-methylazetidin-3-yl)methoxy)phenyl)-2-hydroxyethyl)-5-(1H-pyrazol-4-yl)indoline-1-carboxamide] | 0.5 to 5 | 0.05 to 0.5 |
| COc1cc(F)cc([C@@H](CO)NC(=O)c2ncn3cc(-c4cn[nH]c4)ccc23)c1 [Compound T344, (S)-N-(1-(3-fluoro-5-methoxyphenyl)-2-hydroxyethyl)-6-(1H-pyrazol-4-yl)imidazo[1,5-a]pyridine-1-carboxamide] | ≤ 0.05 | ≤ 0.05 |
| O=C(NCc1cc(F)cc(OCC2CC2)c1)N1CCc2cc(-c3c[nH]nc3F)c(F)cc21 [Compound T347, N-(3-(cyclopropylmethoxy)5-fluorobenzyl)-6-fluoro-5-(3-fluoro-1H-pyrazol-4-yl)indoline-1-carboxamide] | ≤ 0.05 | ≤ 0.05 |
| N#Cc1cc(F)cc(CNC(=O)N2CCc3cc(-c4c[nH]nc4N)c(F)cc32)c1 [Compound T348, 5-(3-amino-1H-pyrazol-4-yl)-N-(3-cyano-5-fluorobenzyl)-6-fluoroindoline-1-carboxamide] | 0.5 to 5 | 0.5 to 5 |
| O=C(NCc1cc(F)cc(OC(F)(F)F)c1)N1CCc2cc(-c3cn[nH]c3)c(F)cc21 [Compound T349, 6-fluoro-N-(3-fluoro-5-(trifluoromethoxy)benzyl)-5-(1H-pyrazol-4-yl)indoline-1-carboxamide] | 0.5 to 5 | 0.5 to 5 |
| O=C(COc1cc(F)cc([C@@H](CO)NC(=O)N2CCc3cc(-c4cn[nH]c4)c(F)cc32)c1)N1CC(F)(F)C1 [Compound T350, (S′)-N-(1-(3-(2-(3,3-difluoroazetidin-1-yl)-2-oxoethoxy)-5-fluorophenyl)-2-hydroxyethyl)-6-fluoro-5-(1H-pyrazol-4-yl)indoline-1-carboxamide] | ≤ 0.05 | ≤ 0.05 |
| COc1cc(F)cc(CNC(=O)N2CCc3cc(-c4c[nH]nc4F)c(F)cc32)c1 [Compound T351, 6-fluoro-5-(3-fluoro-1H-pyrazol-4-yl)-N-(3-fluoro-5-methoxybenzyl)indoline-1-carboxamide] | ≤ 0.05 | ≤ 0.05 |
| COc1cc(F)cc([C@@H](CO)NC(=O)c2cnc3cc(-c4cn[nH]c4)ccn23)c1 [Compound T352, (S)-N-(1-(3-fluoro-5-methoxyphenyl)-2-hydroxyethyl)-7-(1H-pyrazol-4-yl)imidazo(1,2-a)pyridine-3-carboxamide] | ≤ 0.05 | ≤ 0.05 |
| COc1cc(F)cc(CNC(=O)N2CCc3cc(-c4cn[nH]c4)c(C#N)cc32)c1 [Compound T353, 6-cyano-N-(3-fluoro-5-methoxybenzyl)-5-(1H-pyrazol-4-yl)indoline-1-carboxamide] | 0.5 to 5 | 0.05 to 0.5 |
| CC(C)COc1cc(F)cc([C@@H](CO)NC(=O)N2CCc3cc(-c4cn[nH]c4)c(F)cc32)c1 [Compound T354, (S)-6-fluoro-N-(1-(3-fluoro-3-isobutoxyphenyl)-2-hydroxyethyl)-5-(1H-pyrazol-4-yl)indoline-1-carboxamide] | 0.05 to 0.5 | 0.05 to 0.5 |
